± gives the expanded uncertainty stated by the source.
Assays:
[1] = Crystal; visual observation
[2] = mn = molality of the nth substance listed, in mol/kg; details: 101 kPa, Liquid; for apparent molar heat capacity: Flow calorimetry

CC(=O)N[C@@H](CCCCN)C(N)=O.Cl [(S)-2-acetamido-6-aminohexanamide hydrochloride]
Details	Normal melting temperature [°C]
[1]	144.4 ± 1.1

CC(=O)N[C@@H](CCCCN)C(N)=O.Cl [(S)-2-acetamido-6-aminohexanamide hydrochloride] + O
[2]
Details	apparent molar heat capacity [J/K/mol]	mass density [kg/m3]
288.15 K, m1 = 0.02301	333.4 ± 35	1000.28 ± 0.26
288.15 K, m1 = 0.02858	336.3 ± 28	1000.57 ± 0.26
288.15 K, m1 = 0.0372	339.9 ± 22	1001.01 ± 0.26
288.15 K, m1 = 0.04378	339.8 ± 19	1001.34 ± 0.26
288.15 K, m1 = 0.05396	339.8 ± 16	1001.86 ± 0.26
288.15 K, m1 = 0.06411	343.1 ± 13	1002.37 ± 0.27
288.15 K, m1 = 0.07273	342 ± 12	1002.8 ± 0.27
288.15 K, m1 = 0.08089	341.3 ± 11	1003.21 ± 0.27
288.15 K, m1 = 0.08886	340.4 ± 10	1003.6 ± 0.27
288.15 K, m1 = 0.0972	343.1 ± 9.4	1004.02 ± 0.27
298.15 K, m1 = 0.02795	377.8 ± 28	998.439 ± 0.26
298.15 K, m1 = 0.03712	377.9 ± 22	998.893 ± 0.26
298.15 K, m1 = 0.04507	379.4 ± 18	999.283 ± 0.26
298.15 K, m1 = 0.05411	379.1 ± 16	999.729 ± 0.26
298.15 K, m1 = 0.06514	378.6 ± 13	1000.27 ± 0.26
298.15 K, m1 = 0.07363	379 ± 11	1000.68 ± 0.26
298.15 K, m1 = 0.08347	378.8 ± 10	1001.16 ± 0.26
298.15 K, m1 = 0.08995	379 ± 9.3	1001.47 ± 0.27
313.15 K, m1 = 0.02397	404.5 ± 36	993.394 ± 0.28
313.15 K, m1 = 0.03035	411.1 ± 29	993.703 ± 0.28
313.15 K, m1 = 0.03705	406.4 ± 24	994.027 ± 0.28
313.15 K, m1 = 0.04583	409.4 ± 19	994.449 ± 0.28
313.15 K, m1 = 0.05213	–	994.754 ± 0.28
313.15 K, m1 = 0.05469	404 ± 17	–
313.15 K, m1 = 0.05752	–	995.015 ± 0.27
313.15 K, m1 = 0.06361	405.8 ± 15	995.306 ± 0.27
313.15 K, m1 = 0.06804	408 ± 14	995.516 ± 0.27
313.15 K, m1 = 0.07802	406.1 ± 12	995.99 ± 0.27
328.15 K, m1 = 0.02685	429 ± 35	986.984 ± 0.3
328.15 K, m1 = 0.03581	428 ± 27	987.412 ± 0.3
328.15 K, m1 = 0.04352	428.9 ± 22	987.778 ± 0.3
328.15 K, m1 = 0.05273	429.2 ± 18	988.207 ± 0.29
328.15 K, m1 = 0.06308	431.9 ± 16	988.699 ± 0.29
328.15 K, m1 = 0.07041	431.9 ± 14	989.042 ± 0.29
328.15 K, m1 = 0.08088	432.4 ± 12	989.527 ± 0.29
328.15 K, m1 = 0.0877	433.2 ± 12	989.846 ± 0.29

CC(=O)N[C@@H](CCC(N)=O)C(N)=O [(S)-2-acetamidopentanediamide]
Details	Normal melting temperature [°C]
[1]	192.4 ± 1.1

CC(=O)N[C@@H](CCC(N)=O)C(N)=O [(S)-2-acetamidopentanediamide] + O
[2]
Details	apparent molar heat capacity [J/K/mol]	mass density [kg/m3]
288.15 K, m1 = 0.03981	353.8 ± 20	1000.96 ± 0.26
288.15 K, m1 = 0.04349	350.3 ± 18	1001.13 ± 0.26
288.15 K, m1 = 0.0507	353.7 ± 16	1001.46 ± 0.26
288.15 K, m1 = 0.05943	355.1 ± 14	1001.86 ± 0.26
288.15 K, m1 = 0.06967	356.4 ± 12	1002.33 ± 0.27
288.15 K, m1 = 0.07857	350.8 ± 11	1002.75 ± 0.27
288.15 K, m1 = 0.08453	356.6 ± 12	1003.03 ± 0.27
288.15 K, m1 = 0.09265	354.1 ± 9.5	1003.38 ± 0.27
288.15 K, m1 = 0.1008	353.9 ± 8.3	1003.78 ± 0.27
298.15 K, m1 = 0.04537	377.9 ± 18	999.104 ± 0.26
298.15 K, m1 = 0.05783	383.7 ± 16	999.659 ± 0.26
298.15 K, m1 = 0.06765	378 ± 13	1000.1 ± 0.26
298.15 K, m1 = 0.08263	379.9 ± 11	1000.77 ± 0.26
298.15 K, m1 = 0.09722	382.3 ± 11	1001.41 ± 0.27
298.15 K, m1 = 0.1055	382.8 ± 8.9	1001.79 ± 0.27
298.15 K, m1 = 0.1217	379.5 ± 11	1002.51 ± 0.27
298.15 K, m1 = 0.133	381.1 ± 7.3	1003.01 ± 0.27
298.15 K, m1 = 0.1455	382.4 ± 6.7	1003.56 ± 0.28
313.15 K, m1 = 0.03917	407.2 ± 22	–
313.15 K, m1 = 0.04565	409.1 ± 19	994.219 ± 0.28
313.15 K, m1 = 0.05555	410.8 ± 17	994.65 ± 0.28
313.15 K, m1 = 0.06371	410.7 ± 15	995.007 ± 0.27
313.15 K, m1 = 0.07398	410.7 ± 13	995.463 ± 0.27
313.15 K, m1 = 0.08191	408.9 ± 13	995.809 ± 0.27
313.15 K, m1 = 0.08959	408.6 ± 11	996.143 ± 0.27
313.15 K, m1 = 0.1002	409 ± 9.2	996.596 ± 0.27
328.15 K, m1 = 0.03787	430.2 ± 25	987.321 ± 0.3
328.15 K, m1 = 0.04577	430 ± 23	987.659 ± 0.3
328.15 K, m1 = 0.05585	431.2 ± 18	988.092 ± 0.29
328.15 K, m1 = 0.0626	431.6 ± 16	988.383 ± 0.29
328.15 K, m1 = 0.07189	432.4 ± 14	988.783 ± 0.29
328.15 K, m1 = 0.08069	430.4 ± 13	989.147 ± 0.29
328.15 K, m1 = 0.0903	429.9 ± 14	989.565 ± 0.29
328.15 K, m1 = 0.1056	–	990.212 ± 0.29

CC(=O)N[C@@H](CC(N)=O)C(N)=O [(S)-2-acetamidosuccinamide]
Details	Normal melting temperature [°C]
[1]	244 ± 3

CC(=O)NC(=O)[C@@H](N)Cc1ccc(O)cc1 [N-Acetyl-L-tyrosinamide]
Details	Normal melting temperature [°C]
[1]	225 ± 2

CC(=O)NC(=O)[C@@H](N)Cc1ccc(O)cc1 [N-Acetyl-L-tyrosinamide] + O
[2]
Details	apparent molar heat capacity [J/K/mol]	mass density [kg/m3]
288.15 K, m1 = 0.01175	508.1 ± 67	999.692 ± 0.26
288.15 K, m1 = 0.012	504.2 ± 65	999.707 ± 0.26
288.15 K, m1 = 0.01302	504.9 ± 60	999.758 ± 0.26
288.15 K, m1 = 0.01344	509 ± 58	999.773 ± 0.26
288.15 K, m1 = 0.01395	505.4 ± 56	999.805 ± 0.26
288.15 K, m1 = 0.01495	502.3 ± 53	999.855 ± 0.26
288.15 K, m1 = 0.01591	501.9 ± 50	999.904 ± 0.26
288.15 K, m1 = 0.01705	500.4 ± 46	999.955 ± 0.26
288.15 K, m1 = 0.0179	501.6 ± 44	1000 ± 0.26
288.15 K, m1 = 0.01902	503.4 ± 42	1000.05 ± 0.26
288.15 K, m1 = 0.01984	502.6 ± 40	1000.1 ± 0.26
298.15 K, m1 = 0.01196	517 ± 66	997.637 ± 0.26
298.15 K, m1 = 0.013	517.7 ± 60	997.684 ± 0.26
298.15 K, m1 = 0.01383	515.6 ± 57	997.725 ± 0.26
298.15 K, m1 = 0.01493	517 ± 53	997.781 ± 0.26
298.15 K, m1 = 0.01497	–	997.785 ± 0.26
298.15 K, m1 = 0.01592	516.9 ± 50	997.83 ± 0.26
298.15 K, m1 = 0.017	–	997.885 ± 0.26
298.15 K, m1 = 0.01809	519.4 ± 44	997.94 ± 0.26
298.15 K, m1 = 0.01905	–	997.984 ± 0.26
298.15 K, m1 = 0.02018	511.5 ± 39	998.035 ± 0.26
313.15 K, m1 = 0.01197	542.3 ± 72	992.782 ± 0.28
313.15 K, m1 = 0.01299	543.8 ± 66	992.827 ± 0.28
313.15 K, m1 = 0.01401	543 ± 61	992.874 ± 0.28
313.15 K, m1 = 0.01501	545.3 ± 57	992.925 ± 0.28
313.15 K, m1 = 0.01596	546.3 ± 54	992.967 ± 0.28
313.15 K, m1 = 0.01693	541.4 ± 51	993.013 ± 0.28
313.15 K, m1 = 0.01787	543.5 ± 48	993.057 ± 0.28
313.15 K, m1 = 0.01892	542.6 ± 46	993.101 ± 0.28
328.15 K, m1 = 0.01201	553.5 ± 78	986.242 ± 0.3
328.15 K, m1 = 0.01295	552.2 ± 73	986.289 ± 0.3
328.15 K, m1 = 0.01394	549.9 ± 68	986.33 ± 0.3
328.15 K, m1 = 0.0149	556.4 ± 63	986.378 ± 0.3
328.15 K, m1 = 0.0159	554.4 ± 59	986.421 ± 0.3
328.15 K, m1 = 0.01694	552 ± 56	986.462 ± 0.3
328.15 K, m1 = 0.01796	555.6 ± 53	986.514 ± 0.3
328.15 K, m1 = 0.0189	555.1 ± 50	986.548 ± 0.3

Reference: the NIST ThermoML archive (doi:10.1016/j.jct.2006.03.015)
